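Cultured in 96-well plates, cells were exposed to test compound for 48 hours across five concentrations. The concentration for 50% growth inhibition is given as GI50.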 Calls of active or inactive are those of the source. No stated cut-off is given here; in the data, active = GI50 up to about 1.1 µM and inactive = higher. Bounds are passed on as bounds.

Among the test systems are A549; ACHN; COLO 205; DU-145; HCC 2998; HT-29; IGROV-1; MDA-MB-231; Malme-3M; NCI-H226; NCI/ADR-RES; OVCAR-3; OVCAR-4; SF-268; SF-295; SK-MEL-5; SNB-75; SR; SW-620; TK-10.
Holding throughout (test): NCI tumour cell line growth inhibition, 48 h

For the compound `COc1ccc2c(c1)CC[C@@H]1[C@@H]2CC[C@]2(C)/C(=N/OCCN3CCCC3)CC[C@@H]12`, the GI50 in the experiment on A549 was 2.78 µM (inactive); in the experiment with ACHN, 4.45 µM (inactive); in the experiment on COLO 205, 1.67 µM (inactive); in the experiment with DU-145, 3.94 µM (inactive); in the experiment with HCC 2998 it was 1.85 µM (inactive); in the experiment on HT-29, 0.766 µM (active). Also, the GI50 in the experiment on IGROV-1 was 4.51 µM (inactive); with MDA-MB-231 it was 3.83 µM (inactive); in the experiment on Malme-3M it was 1.63 µM (inactive); in the experiment on NCI-H226 it was 1.95 µM (inactive); in the experiment on NCI/ADR-RES it was 8.61 µM (inactive); in the experiment with OVCAR-3, 5.82 µM (inactive). In addition, the GI50 is 12 µM (inactive) with OVCAR-4; 4.07 µM (inactive) in the experiment on SF-268; 2.35 µM (inactive) in the experiment on SF-295; 1.9 µM (inactive) in the experiment on SK-MEL-5; 3 µM (inactive) with SNB-75; 1.97 µM (inactive) in the experiment with SR. Moreover, the GI50 in the experiment on SW-620 was 1.95 µM (inactive); in the experiment with TK-10 it was 6.47 µM (inactive).

As to `CC1(c2ccc(Cl)cc2)N=C(NCCO)c2ccccc21` (stereo not given), the GI50 with A549 is 23.7 µM (inactive); in the experiment with ACHN, 29.4 µM (inactive); in the experiment on COLO 205, 13.5 µM (inactive); with DU-145, 2.07 µM (inactive); in the experiment on HCC 2998 it was 12.2 µM (inactive); with HT-29 it was 5.74 µM (inactive). Also, the GI50 with IGROV-1 is 22.9 µM (inactive); in the experiment on MDA-MB-231 it was 19.1 µM (inactive); in the experiment on Malme-3M it was 17.9 µM (inactive); in the experiment on NCI-H226, 11.1 µM (inactive); with NCI/ADR-RES it was 99.5 µM (inactive); in the experiment with OVCAR-3, 56.1 µM (inactive). Further, the GI50 was 67.9 µM (inactive) in the experiment with OVCAR-4; 42.9 µM (inactive) in the experiment on SF-268; 8.36 µM (inactive) in the experiment with SF-295; 14.8 µM (inactive) in the experiment on SK-MEL-5; 19.5 µM (inactive) in the experiment on SNB-75; 16.4 µM (inactive) in the experiment on SR. Further, the GI50 with SW-620 was 10.5 µM (inactive); with TK-10, 41.4 µM (inactive).

As for `COc1cc2c(cc1C1COc3cc4occc4cc3C1=O)OCO2` (stereo not given), the GI50 in the experiment on A549 was 7.11 µM (inactive); in the experiment on ACHN it was > 100 µM (inactive); in the experiment on COLO 205, > 100 µM (inactive); in the experiment with DU-145, > 100 µM (inactive); in the experiment with HCC 2998 it was 98.6 µM (inactive); in the experiment on HT-29, 41.2 µM (inactive). For the same compound, the GI50 with IGROV-1 was 63 µM (inactive); with MDA-MB-231 it was > 100 µM (inactive); with Malme-3M, 89.1 µM (inactive); in the experiment on NCI-H226 it was 25.7 µM (inactive); in the experiment with NCI/ADR-RES, 17.1 µM (inactive); in the experiment with OVCAR-3, > 100 µM (inactive). Further, the GI50 is 2.81 µM (inactive) with OVCAR-4; 55.1 µM (inactive) in the experiment on SF-268; 53.8 µM (inactive) with SF-295; > 100 µM (inactive) with SK-MEL-5; > 100 µM (inactive) in the experiment on SNB-75; 49.1 µM (inactive) with SR. Moreover, the GI50 in the experiment with SW-620 is > 100 µM (inactive); with TK-10, 29.4 µM (inactive).

On to `ON[C@H]1C[C@@H](n2cnc3c(NC4CC4)ncnc32)[C@H](O)[C@@H]1O`, for which the GI50 in the experiment with A549, in the experiment on ACHN, in the experiment with COLO 205, in the experiment with DU-145, in the experiment with HCC 2998 and in the experiment with HT-29 was > 100 µM (inactive) each time. For the same compound, the GI50 in the experiment on IGROV-1, in the experiment on MDA-MB-231, in the experiment with Malme-3M, with NCI-H226, in the experiment on NCI/ADR-RES and with OVCAR-3 was > 100 µM (inactive) in each case. Also, the GI50 in the experiment with OVCAR-4, with SF-268, in the experiment with SF-295, with SK-MEL-5, in the experiment on SNB-75 and in the experiment with SR was > 100 µM (inactive) each time. For the same compound, the GI50 with SW-620 and with TK-10 was > 100 µM (inactive) throughout.

As to `O=C(/C=C/c1csc(-c2ccccc2)n1)NCc1ccc(C(=O)NCc2ccccc2)cc1`, the GI50 in the experiment on A549 was > 100 µM (inactive); with ACHN, 67.1 µM (inactive); in the experiment on COLO 205, > 100 µM (inactive); in the experiment on DU-145, > 100 µM (inactive); in the experiment on HCC 2998, > 100 µM (inactive); in the experiment with HT-29, 41.2 µM (inactive). For the same compound, the GI50 with IGROV-1 was 37.2 µM (inactive); with MDA-MB-231, 18.7 µM (inactive); in the experiment on Malme-3M, 92 µM (inactive); with NCI-H226, > 100 µM (inactive); in the experiment with NCI/ADR-RES, 50.8 µM (inactive); with OVCAR-3, > 100 µM (inactive). In addition, the GI50 is > 100 µM (inactive) with OVCAR-4; 35.3 µM (inactive) in the experiment on SF-268; 30.4 µM (inactive) in the experiment on SF-295; > 100 µM (inactive) in the experiment with SK-MEL-5; 19.2 µM (inactive) in the experiment on SNB-75; > 100 µM (inactive) in the experiment on SR. The GI50 in the experiment with SW-620 is > 100 µM (inactive); with TK-10, 31.9 µM (inactive).

For the compound `CN1CCC/C1=N\C#N`, the GI50 with A549, in the experiment on ACHN, in the experiment with COLO 205, with DU-145, in the experiment on HCC 2998 and in the experiment with HT-29 was > 100 µM (inactive) each time. Further, the GI50 in the experiment with IGROV-1, in the experiment on MDA-MB-231, in the experiment with Malme-3M, in the experiment with NCI-H226, with NCI/ADR-RES and in the experiment on OVCAR-3 was > 100 µM (inactive) each time. Also, the GI50 in the experiment on OVCAR-4, with SF-268, in the experiment on SF-295, in the experiment on SK-MEL-5, in the experiment on SNB-75 and in the experiment with SR was > 100 µM (inactive) throughout. The GI50 in the experiment on SW-620 and with TK-10 was > 100 µM (inactive) in each case.

Regarding `CN(C)CCCNc1c2ccccc2nc2cccc([N+](=O)[O-])c12`, the GI50 with A549 is < 0.001 µM (active); with ACHN, < 0.001 µM (active); with COLO 205 it was < 0.001 µM (active); in the experiment with DU-145 it was 0.00257 µM (active); with HCC 2998, < 0.001 µM (active); in the experiment on HT-29, < 0.001 µM (active). The GI50 in the experiment on IGROV-1 is < 0.001 µM (active); in the experiment on MDA-MB-231, < 0.001 µM (active); in the experiment on Malme-3M, < 0.001 µM (active); with NCI-H226, 0.0048 µM (active); with NCI/ADR-RES, 0.00798 µM (active); in the experiment on OVCAR-3 it was 0.0143 µM (active). Besides, the GI50 with OVCAR-4 was < 0.001 µM (active); in the experiment on SF-268, 0.00123 µM (active); in the experiment with SF-295 it was 0.0236 µM (active); in the experiment with SK-MEL-5, < 0.001 µM (active); in the experiment with SNB-75, 0.00204 µM (active); in the experiment on SR, < 0.001 µM (active). Also, the GI50 in the experiment with SW-620 is < 0.001 µM (active); with TK-10 it was 0.00215 µM (active).

Consider `NCCC1CN(C(=O)OCc2ccccc2)c2ccccc21` (stereo not given), for which the GI50 is 27.5 µM (inactive) with A549; 22.6 µM (inactive) in the experiment with ACHN; 16.3 µM (inactive) in the experiment with COLO 205; 17.3 µM (inactive) in the experiment with DU-145; 16.6 µM (inactive) in the experiment with HCC 2998; 12.5 µM (inactive) with HT-29. Besides, the GI50 is 9.48 µM (inactive) in the experiment on IGROV-1; 19.1 µM (inactive) with MDA-MB-231; 14.8 µM (inactive) in the experiment with Malme-3M; 12 µM (inactive) with NCI-H226; 15.1 µM (inactive) in the experiment with NCI/ADR-RES; 16.7 µM (inactive) in the experiment with OVCAR-3. In addition, the GI50 was 20.4 µM (inactive) in the experiment with OVCAR-4; 17.1 µM (inactive) in the experiment on SF-268; 18.3 µM (inactive) in the experiment on SF-295; 11.2 µM (inactive) with SK-MEL-5; 12.3 µM (inactive) with SNB-75; 2.9 µM (inactive) in the experiment on SR. For the same compound, the GI50 in the experiment on SW-620 was 6.67 µM (inactive); in the experiment with TK-10 it was 22.6 µM (inactive).

These data come from ChEMBL document CHEMBL1201862, “PubChem BioAssay data set” (2004).
